biological target: T1, human P2Y12 receptor (Homo sapiens, UniProt Q9H244); experiment: P2Y12 receptor binding assay (displacement of tritium-labeled 2-methyl-S-ADP on CHO cells); settings: CHO cells with recombinant human P2Y12 receptor, 2 hours at room temperature
T1 construct: expressed in transfected cells; host or cells: CHO (Chinese Hamster Ovary) cells
Method: The ability of the compounds of formulae (I) and (III) to bind to the P2Y12 receptor may be measured by methods similar to those described in Gachet C. et al., Br. J. Hematol. 1995, 91, 434-444 and by the method described below in Example 16.
Chinese Hamster Ovary (CHO) cells with recombinant expression of the human P2Y12 receptor were cultured in 24 well cell-culture plates. Cells were washed three times with binding buffer (50 mM Tris pH 7.4, 100 mM NaCl, 1 mM EDTA, 0.5% BSA). The cells were then incubated with 0.5 ml per well binding buffer containing tritium-labeled 2-methyl-thio-adenosine 5′-diphosphate (2-methyl-S-ADP) (between 100'000 and 300'000 dpm per well) and various concentrations of test compounds. After incubation at room temperature for 2 hours, cells were washed three times with binding buffer. Then, cells were solubilized by addition of 0.5 ml solubilization buffer (SDS, NaOH, EDTA). The content of each well was then transferred into beta-counter vials and 2.0 ml of Ultima Gold Scintillation liquid was added.
The test is conducted as described hereinabove. […] Exemplary IC50 values are given below.

T1 sequence (Q9H244 whole entry): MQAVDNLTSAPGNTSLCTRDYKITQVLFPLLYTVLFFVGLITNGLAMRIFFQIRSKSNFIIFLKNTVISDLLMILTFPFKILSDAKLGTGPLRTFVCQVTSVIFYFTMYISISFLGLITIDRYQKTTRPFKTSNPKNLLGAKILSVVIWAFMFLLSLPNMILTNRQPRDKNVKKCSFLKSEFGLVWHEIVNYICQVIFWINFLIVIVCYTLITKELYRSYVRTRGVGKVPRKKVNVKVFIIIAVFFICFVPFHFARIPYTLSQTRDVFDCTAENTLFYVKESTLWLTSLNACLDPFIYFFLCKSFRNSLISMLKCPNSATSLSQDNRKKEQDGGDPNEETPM

| Compound | IC50 |
| --- | --- |
| CCCOc1ccc(C=C2C(=O)NN(c3ccccc3)C2=O)c(OC[C@H](O)[C@@H](O)C(=O)O)c1C [Example 2a71, 4-[1-[2-((2S,3R)-3-carboxy-2,3-dihydroxy-propoxy)-3-methyl-4-propoxy-phenyl]-methylidene]-1-phenyl-pyrazolidine-3,5-dione] | 3 nM |
| CCCOc1ccc(C=C2C(=O)NN(c3ccccc3)C2=O)c(OC[C@H](O)CC(=O)O)c1C [Example 2a63, 4-[1-[2-((2R)-3-Carboxy-2-hydroxy-propoxy)-3-methyl-4-propoxy-phenyl]-methylidene]-1-phenyl-pyrazolidine-3,5-dione] | 1 nM |
| CCCOc1ccc(C=C2C(=O)NNC2=O)c2c1CCCC2 [Example 12a3, 4-(4-Propoxy-5,6,7,8-tetrahydro-naphthalen-1-ylmethylene)-pyrazolidine-3,5-dione] | 55 nM |
| CCCOc1ccc(C=C2C(=O)NN(c3ccccc3)C2=O)c(OCCC)n1 [Example 2a35, 4-[1-(2,6-Dipropoxy-pyridin-3-yl)-methylidene]-1-phenyl-pyrazolidine-3,5-dione] | 370 nM |
| CCCOc1ccc(C=C2C(=O)NN(c3ccccc3)C2=O)c2cnccc12 [Example 2a30, 1-Phenyl-4-[1-(5-propoxy-isoquinolin-8-yl)-methylidene]-pyrazolidine-3,5-dione] | 10 nM |
| CCCOc1ccc(C=C2C(=O)NN(c3ccccc3)C2=O)c(OCCOC)c1C [Example 2a39, 4-[1-[2-(2-Methoxy-ethoxy)-3-methyl-4-propoxy-phenyl]-methylidene]-1-phenyl-pyrazolidine-3,5-dione] | 15 nM |
| CCCOc1ccc(C=C2C(=O)NN(c3ccccn3)C2=O)c(C)c1C [Example 4a2, 4-(2,3-Dimethyl-4-propoxy-benzylidene)-1-pyridin-2-yl-pyrazolidine-3,5-dione] | 140 nM |
| CCCOc1ccc(C=C2C(=O)NN(c3ccccc3)C2=O)c(C)c1C [Example 1, 4-(2,3-Dimethyl-4-propoxy-benzylidene)-1-phenyl-pyrazolidine-3,5-dione] | 24 nM |
| CCCOc1ccc(C=C2C(=O)NN(c3ccccc3)C2=O)c(OC[C@@H](O)CC(=O)O)c1C [Example 2a64, 4-[1-[2-((2S)-3-Carboxy-2-hydroxy-propoxy)-3-methyl-4-propoxy-phenyl]-methylidene]-1-phenyl-pyrazolidine-3,5-dione] | 0.8 nM |
| COc1ccc(C=C2C(=O)NN(c3ccccc3)C2=O)c(C)c1C [Example 2a7, 4-(2,3-Dimethyl-4-methoxy-benzylidene)-1-phenyl-pyrazolidine-3,5-dione] | 190 nM |
| CCCOc1ccc(C=C2C(=O)NNC2=O)c(OCCC)c1C [Example 12a9, 4-(3-Methyl-2,4-dipropoxy-benzylidene)-pyrazolidine-3,5-dione] | 40 nM |
| CCCOc1ccc(C=C2C(=O)NN(c3ccccc3)C2=O)c(OCCCCO)c1C [Example 2a43, 4-[1-[2-(4-Hydroxy-butoxy)-3-methyl-4-propoxy-phenyl]-methylidene]-1-phenyl-pyrazolidine-3,5-dione] | 5 nM |
| CCCOc1ccc(C=C2C(=O)NN(c3ccc(F)cc3)C2=O)c(C)c1C [Example 8a, 4-(2,3-Dimethyl-4-propoxy-benzylidene)-1-(4-fluoro-phenyl)-pyrazolidine-3,5-dione] | 83 nM |
| CCCOc1ccc(C=C2C(=O)NN(C(C)=O)C2=O)c(C)c1C [Example 15, 1-Acetyl-4-[1-(2,3-dimethyl-4-propoxy-phenyl)-methylidene]-pyrazolidine-3,5-dione] | 9600 nM |
| CCCOc1ccc(C=C2C(=O)NN(c3ccccc3)C2=O)c(OCCCCC(=O)O)c1C [Example 2a52, 4-[1-[2-(4-Carboxy-butyloxy)-3-methyl-4-propoxy-phenyl]-methylidene]-1-phenyl-pyrazolidine-3,5-dione] | 1.6 nM |
| CCOc1ccc(C=C2C(=O)NN(c3ccccc3)C2=O)cc1C [Example 2a12, 4-(4-Ethoxy-3-methyl-benzylidene)-1-phenyl-pyrazolidine-3,5-dione] | 470 nM |
| CCCOc1ccc(C=C2C(=O)NN(c3ccccc3)C2=O)c2c1CCCC2 [Example 2a25, 1-Phenyl-4-(4-propoxy-5,6,7,8-tetrahydro-naphthalen-1-ylmethylene)-pyrazolidine-3,5-dione] | 30 nM |

Source: US20070037846A1, “Pyrazolidinedione derivatives” (ACTELION PHARMACEUTICALS, LTD., priority 2003, published 2007)
